From a melting point compilation (Tetko et al.; mined from patent text by program, amines drawn as free bases though some values may be those of a salt) come the findings set out here.

For orientation: melting point means the temperature of the solid-liquid transition. Turning to `CC(C)CC(=O)Nc1ccc(-c2ccnc3c(C(=O)c4cccs4)cnn23)s1`, the melting point lay within 268 to 270 °C.

The molecule `O=C1NCCN(Cc2ccc(Cl)cc2)C1c1ccccc1` (stereo unspecified) returned a melting point of 103 to 104 °C. Turning to `CC(C)[Si](C)(C)CCSCCCNC(=O)n1cc(F)c(=O)[nH]c1=O`, the melting point lay within 122 to 123 °C. In turn, `CN1CCCCC1CNC(=O)Nc1cc(OCC(F)(F)F)ccc1OCC(F)(F)F` (stereo unspecified) registered a melting point of 123 to 126 °C. Regarding `COC(=O)c1c(C)cn2cc(OCc3ccccc3)ccc12`, the melting point amounted to 143 °C. The same measure for `CCCCCC(=O)c1c(C)n(C(C)=O)c(=O)n1C(C)=O`: 71 to 72 °C; for `CN1CC(C(=O)CN2CCOCC2)CC2c3cccc4c3c(cn4C)CC21` (stereo unspecified): 198 to 200 °C. In the case of `CC1CCN(c2ccc(-c3nc(C(=O)Nc4nccs4)c(-c4ccc(Cl)cc4)[nH]3)cc2)CC1`, the melting point is > 250 °C. In the case of `C#CCn1c(-c2cc(Cl)nc(Cl)c2)nc(O)c(OC)c1=O`, the melting point is 227 to 228 °C. `O=C(c1ccc(F)cc1)C1CC2CCN1CC2` (stereo unspecified) registered a melting point of 68 to 69 °C. In turn, `O=C1C2CCCCC2(Cl)C(=O)N1c1ccc(Cl)cc1` (stereo unspecified) yielded a melting point of 116 to 118 °C.

In turn, `Cn1c(=O)cnn(-c2ccc(Cl)c(C(=O)NCCc3ccccc3Cl)c2)c1=O` had a melting point of 157 to 161 °C.

As to `Cc1[nH]c(=O)ccc1-c1cccc(O)c1`, the melting point was 285 to 288 °C. `O=C1NCc2ccc3ccccc3c21` gave a melting point of 138 to 141 °C.

Consider `CCCCc1c(Cl)nc(N)nc1-c1ccsc1`, for which the melting point lay within 154 to 155 °C. The same measure for `C(=Nc1ccccn1)N(c1ccccc1)c1ccccc1`: 92 to 94 °C; for `O=C(O)C1CCc2c(oc3ccc([N+](=O)[O-])cc23)C1` (stereo unspecified): 229 to 232 °C.

`COC(=O)C(=O)c1ccc(OCCCc2ccc3ccccc3c2)cc1` gave a melting point of 97 to 99 °C. `O=C(O)CNC(=O)c1c(O)n(C2CCCCC2)c(=O)n(C2CCCC2)c1=O` gave a melting point of 222 to 224 °C. On to `O=C(O)Cc1ccc(C(=O)c2ccc(Cl)cc2)[nH]1`, for which the melting point is 210 °C. For `CC1(C)CC2(CC(C)(C)N1)OC1(CCCCCCCCCCC1)NC2=O`, the melting point stood at 97 °C. Take `Cc1ccc(C(N)=O)cc1NC(=O)COCCO`: the melting point was 118 to 119 °C. `CCCOc1ccc(-c2ccc(-c3ccccc3Cl)n2Cc2ccc(OCCO)c(N)n2)cc1` came in with a melting point of 89 to 92 °C.

`CC(C)(C)C(=O)Oc1n[nH]c(=O)c2nc3cc(Cl)ccc3c(O)c12` displayed a melting point of 352 to 357 °C.

In turn, `COc1ccc2c(c1)N1CCOCC1CN=C2c1ccco1` (stereo unspecified) showed a melting point of 130 to 132 °C. `CN1c2ccccc2CC1COc1ccc(CC2SC(=O)N(C(c3ccccc3)(c3ccccc3)c3ccccc3)C2=O)cc1` (stereo unspecified) gave a melting point of 62.5 to 65.5 °C. Turning to `CC(=O)Nc1ccc2c(c1)CCN2NC(C)=O`, the melting point fell in the range of 217 to 218 °C. Molecule `CCCCCCCCCCOc1cc(OCCCOc2ccc(O)cc2)cc(C(=O)O)c1` yielded a melting point of 106 to 109 °C. The molecule `CCOC(=O)c1cc2c3cc4ccccc4cc3ccc2n1C` returned a melting point of 141 to 144 °C.

In turn, `N#CCOc1ccc2cc(Br)ccc2c1Cl` came in with a melting point of 126 to 127 °C.

Molecule `CCOC(=O)c1sc(OCC)nc1-c1cccc(C(F)(F)F)c1` yielded a melting point of 69 to 72 °C. The same measure for `CC(=O)N1C(C)(C)CC(O)CC1(C)C`: 102 to 104 °C; for `CN(CCC(Oc1ccc(C(=O)c2ccc3ccccc3c2)cc1)c1ccccc1)CC(=O)O` (stereo unspecified): 77 to 89 °C. Molecule `COc1cc(OCCn2cccc2)ccc1/C=C/c1cc(/C=C/c2ccc3cc[nH]c3c2)n[nH]1` showed a melting point of 102 to 110 °C.

In turn, `Nc1nc(N)nc(-c2ccc(Sc3ccccc3)cc2)n1` registered a melting point of 213 to 215 °C. Regarding `O=C(CN1CCCCC1)Nc1ccc(NC(=O)Nc2ccc(N(CCCl)CCCl)cc2)cc1`, the melting point was in the range of 227 to 229 °C. `CCCCCCC(=O)Nc1ncnc(NC2CC2)n1` displayed a melting point of 195 to 197 °C. With `Cc1nc(N2CCc3ccccc3CC2)c(C#N)c(=O)n1O`, the melting point was 168 to 172 °C. `NC(=S)c1cn(COC(CO)CO)c2ncnc(N)c12` registered a melting point of 180 to 181 °C. Molecule `COC(=O)C(Cc1ccc(OCCN(C)c2nc3ccccc3o2)cc1)Oc1ccc(Cl)cc1` (stereo unspecified) returned a melting point of 88 to 90 °C.

With `N#Cc1ccc(Nc2nnc(Cc3ccncc3)c3ccccc23)cc1`, the melting point fell in the range of 228 to 230 °C. Consider `COc1ccc(C(=O)Nc2ccccc2)cc1NCc1ccc(C(C)C)cc1`, for which the melting point lay within 174 to 176 °C. The same measure for `COc1ccc(CCCOS(C)(=O)=O)cc1OCc1coc(/C=C/c2ccccc2)n1`: 112 to 113 °C.

Molecule `COc1ccc(Cn2cnc3c(-c4ccco4)nc(C4CC4)nc32)cc1` returned a melting point of 115 to 116 °C. `CCC(=O)C1=C(O)CC(c2ccc3c(c2)CCCC3)CC1=O` (stereo unspecified) yielded a melting point of 87 °C. The molecule `CC(C)(C)OC(=O)N1CCC=C(Cc2c[nH]c3ccc(F)cc23)C1` registered a melting point of 78 to 80 °C. `CCOC(=O)Cc1c(-c2ccc(Cl)cc2)nn(-c2ccccc2)c1-c1ccc(Cl)cc1` showed a melting point of 120 to 122 °C. With `CCCCCCCCCCOc1cc(OCCCCCCCCCC)cc(N(CC(=O)O)CC(=O)O)c1`, the melting point was in the range of 110 to 114 °C.

Turning to `CN(C)CCCOc1ccc(/C=C/C(=O)O)cc1`, the melting point fell in the range of 191 to 193 °C.

Turning to `CCOC(=O)Cc1ccc(OCCN2CCN(c3cc(Cl)nnc3Cl)CC2)cc1`, the melting point lay within 128 to 130 °C.

Molecule `COc1cc(C)c(O)c(C(=O)NCCc2ccc(N=C(N)c3cccs3)cc2)c1` showed a melting point of 175 to 176 °C.

`CCOC(=O)C(=O)C1C(=O)c2cccc3cccc1c23` (stereo unspecified) yielded a melting point of 101 to 103 °C.

For the molecule `Cc1[nH]cnc1CSCCNc1[nH]cc(-c2ccccc2)c1[N+](=O)[O-]`, the melting point lay within 182 to 184 °C. The same measure for `O=C1CCCC(CN2CCN(c3ccccn3)CC2)C1` (stereo unspecified): 86 to 90 °C; for `O=C(CCl)CCCCc1ccc(CCCCC(=O)CCl)cc1`: 86 to 87 °C. On to `COc1ccc(Cc2ccc(CO)cc2)cc1`, for which the melting point lay in the range of 68 to 72 °C.

For the molecule `Cc1[nH]c(C(C)(C)C)nc1C=O`, the melting point lay in the range of 196 to 198 °C.

The molecule `Cc1cc(C(=O)CC(O)(c2cc(Cl)cc(Cl)c2)C(F)(F)F)ccc1Br` (stereo unspecified) gave a melting point of 141 to 142 °C. Consider `NC(CC(c1ccccc1)c1ccccc1)(C(=O)O)C1CC(C(=O)O)(C(=O)O)C1` (stereo unspecified), for which the melting point lay in the range of 182 to 185 °C. For `Nc1sc(-c2ccc(Cl)cc2)c(CN(C2CCCCC2)C2CCCCC2)c1C(=O)c1ccc(Cl)cc1`, the melting point was in the range of 200 to 204 °C.

Regarding `CC(=O)c1c(C)c(NC(=O)OCC(Cl)(Cl)Cl)c(C)c2c1OCC2c1ccc(C(C)C)cc1` (stereo unspecified), the melting point was in the range of 186 to 189 °C.

Regarding `COC(=O)c1ccccc1-c1ccc(COc2cc(C)nc3cccnc23)cc1`, the melting point lay within 132 to 134 °C.

Molecule `CCOC(C)c1cc2c(=O)n(NS(C)(=O)=O)c(=O)[nH]c2cc1C(F)(F)F` (stereo unspecified) gave a melting point of 105 to 112 °C. For `CC(C)c1cc(C(C)C)c(CC(=O)NS(=O)(=O)Oc2c(C(C)C)cc(N)cc2C(C)C)c(C(C)C)c1`, the melting point lay within 153 to 155 °C. The same measure for `CCOC(=O)C=Cc1cccc(N)c1`: 84 to 85 °C; for `Oc1cc2c(cc1CNc1ccccc1)OCCC2`: 135 to 137 °C; for `CC1(C)CON(CC2=C(Cl)CC(=NCc3ccccc3O)C=C2)C1=O`: 105 to 107 °C. On to `CSC(Oc1cc(C)c(Br)c(C)c1)C(=O)NC(C)(C)C` (stereo unspecified), for which the melting point lay within 123 to 125 °C. `CCCCNC(=O)Oc1ccc(Oc2ccc(C)cc2)cc1` showed a melting point of 64 to 66 °C. `N#Cc1cc(-c2ccoc2)c2ccc(COc3cc(F)cc(-c4cc(F)cc(F)c4)c3)cc2n1` came in with a melting point of 189 to 192 °C.

In turn, `CCCCCCCCNC(=O)N1CCC(S(=O)(=O)c2ccc(CCNC[C@H](O)COc3ccc(O)c(C)c3)cc2)CC1` gave a melting point of 58 to 71 °C. `CC(C)(C)Oc1ccc(CCC(=O)OCc2ccc([N+](=O)[O-])cc2)cc1` had a melting point of 30 to 32 °C. As to `CCN(CC1(C(F)(F)F)c2cc(Cl)ccc2Nc2ncccc21)C(C)C` (stereo unspecified), the melting point fell in the range of 140 to 141 °C. `Cc1nc2scc(C)n2c1S(N)(=O)=O` displayed a melting point of 177 to 178 °C. Take `OCCCOc1ccc(-c2ccccc2)cc1`: the melting point lay in the range of 123 to 124 °C. In turn, `CN1CCN(Cc2ccccc2Cl)C(C(=O)NCCCl)C1` (stereo unspecified) had a melting point of 74 to 75 °C. In the case of `CS(=O)(=O)N1CCN(c2n[nH]c(-c3ccc(Cl)cc3)c2-c2ccncc2)CC1`, the melting point was 245 to 248 °C. The same measure for `CNC(=O)[C@@H](NC(=O)[C@@H](CC(C)C)C(C(=O)O)C(=O)O)C(C)(C)C`: 101 °C. `Cc1cc(-c2nnc3c4ccccc4c(OCn4cccn4)nn23)no1` gave a melting point of 235 to 237 °C.

`CC(=O)NCC1CC1c1c(C)ccc2nn(C)cc12` (stereo unspecified) displayed a melting point of 139 to 140 °C. The same measure for `COc1ccc2c(Cc3c(Cl)cncc3Cl)nncc2c1C#CCCCc1ccccc1`: 130 to 132 °C; for `CC(=O)c1ccc(C(=O)CCl)s1`: 94 to 95 °C; for `C=C(C)C1CCC2(C(=O)O)CCC3(C)C(CCC4C5(C)CCC(O)C(C)(CO)C5CCC43C)C12` (stereo unspecified): 258 to 259 °C. Molecule `CN(C)c1cc(C(F)(F)F)cc(Cl)c1-n1nc(C#N)c(S(=O)(=O)C(F)(F)F)c1N` yielded a melting point of 197 °C. `N#Cc1c(N2CCN(C(=O)c3cccs3)CC2)c2cccnc2n(Cc2ccc(F)cc2)c1=O` displayed a melting point of 271 °C. The same measure for `O=c1ccn(-c2cccc(C(F)(F)F)c2)nc1-c1c(F)cnn1-c1ccccc1`: 156 to 158 °C.

The molecule `Cc1oc(-c2ccccc2)nc1COc1ccc(CON2C(=O)c3ccccc3C2=O)cc1` gave a melting point of 155 to 156 °C. In turn, `CC(CO)Nc1c(Br)cnc2cc(Cl)ccc12` (stereo unspecified) had a melting point of 145 to 147 °C.

Take `CC(C)(C)C1c2ccccc2CCC1O` (stereo unspecified): the melting point stood at 104 °C. Take `N#CNC(=Nc1ccncc1)NCCSc1ccccc1`: the melting point fell in the range of 161 to 163 °C. The same measure for `Cc1ccc2c(c1)Nc1ccccc1N=C2N1CCN[C@@H](CCc2ccccc2)C1`: 64 to 80 °C.
